The results in this text go back to article PMC8802890, “Identification of U937^JAK3-M511I Acute Myeloid Leukemia Cells as a Sensitive Model to JAK3 Inhibitor” (Frontiers in Oncology, 2022).

The target in series [1] is T1, JAK1 (Homo sapiens, UniProt P23458).
T1 construct: purchased Invitrogen (Waltham, MA, USA)
In words: Z'-Lyte kinase assay, JAK1. It counts as biochemical.

Series [2] has as its system Ba/F3-TEL-JAK1. Description: CCK-8 anti-proliferation, Ba/F3-TEL-JAK1. The class given is cell-based, Murine. Conditions: Mus musculus, CCK-8, 72 h, mean ± SD.
The test system of series [3] is Ba/F3-TEL-JAK2. Description: CCK-8 anti-proliferation, Ba/F3-TEL-JAK2. The class given is cell-based, Murine. Conditions: Mus musculus; CCK-8, 72 h; mean ± SD.
In series [4] the test system is Ba/F3-JAK3 (M511I). Description: CCK-8 anti-proliferation, Ba/F3-JAK3 (M511I). The class given is cell-based, Murine. Conditions: Mus musculus; CCK-8, 72 h; mean ± SD.
Series [5] has as its system Ba/F3. Description: CCK-8 anti-proliferation, parental Ba/F3. Conditions: Mus musculus, BaF3; parental cells, with IL-3; CCK-8, 72 h; mean ± SD. The class given is cell-based, Murine.
In series [6] the test system is U937 cells. In words: Cell cycle analysis by flow cytometry, U937. The class given is cell-based, human. For orientation: A flow cytometer gives signals particle by particle.
Series [7] concerns OCI-LY3 cells. In words: Cell cycle analysis by flow cytometry, OCI-LY3. It counts as cell-based. Conditions: PF-06651600 treatment.
Series [8] relates to U937 cells. In words: Apoptosis assay (7-AAD / Annexin V-PE flow cytometry), U937. The class given is cell-based, human. Conditions: PF-06651600 treatment.
For series [9], the system named is JAK3-STAT3/5 signal pathway in U937 cells. In words: Western blotting of JAK3-STAT3/5 signal pathway, U937. The class given is cell-based, human.
The test system of series [10] is JAK3-STAT3/5 signal pathway in Ba/F3-JAK3 M511I cell line. Description: Western blotting of JAK3-STAT3/5 signal pathway, Ba/F3-JAK3 M511I. It counts as cell-based, Murine. From the text: Murine Ba/F3 cells were purchased from DSMZ (Deutsche Sammlung von Mikroorganismen und Zellkulturen). Ba/F3 cell lines stably expressing JAK1 and JAK2 were self-established through electroporation of pCDNA3.1-TEL plasmids. JAK3 (M511I) was produced from pCDNA3.1 plasmids using the Amaxa Cell Line Nucleofector Kit V (Lonza, Cologne, Germany). Stable cell lines were selected by G418 (Merck, NJ, USA) and subsequent withdrawal of IL-3 (R&D, MN, USA). All Ba/F3 stable cell lines were confirmed by positive drug tests, DNA sequencing, and Western blotting (WB) analysis. Parental Ba/F3 cells were maintained in RPMI-1640 supplemented with 10% FBS (Biological Industries) and 1% penicillin-streptomycin (Biological Industries) and 10 ng/ml of IL-3, while all Ba/F3 stable cell lines were cultured in the same medium without IL-3.
Cells at a cell density of 8 × 10^5 cells/ml were treated with different concentrations of compounds or DMSO for the indicated time. The cells were then lysed with 1× SDS sample lysis buffer, as recommended by CST. […] The protein signals were detected with Amersham Imager 600 system (GE, Boston, MA, USA) using an ECL Western blotting detection kit (Thermo Fisher Scientific, Waltham, MA, USA).
Background: A western blot detects proteins with antibodies after separation by electrophoresis.

In series [11] the test system is U937 AML cells. In words: CCK-8 anti-proliferation, U937. Conditions: for IC50: Homo sapiens, U-937, 72 h, read-out: IC50 Cell line U937.
In series [12] the test system is Daudi. Description: CCK-8 anti-proliferation, Daudi. Conditions: read-out: IC50 Cell line Daudi; CCK-8, 72 h; mean ± SD.
Series [13] deals with HL-60. Description: CCK-8 anti-proliferation, HL-60. Conditions: read-out: IC50 Cell line HL-60; CCK-8, 72 h; mean ± SD.
The subject of series [14] is MOLT-4. In words: CCK-8 anti-proliferation, MOLT-4. Conditions: read-out: IC50 Cell line MOLT-4; CCK-8, 72 h; mean ± SD.
The test system of series [15] is Jurkat. In words: CCK-8 anti-proliferation, Jurkat. Conditions: read-out: IC50 Cell line Jurkat; CCK-8, 72 h; mean ± SD.
In series [16] the test system is MV4-11. Description: CCK-8 anti-proliferation, MV4-11. Conditions: read-out: IC50 Cell line MV4-11; CCK-8, 72 h; mean ± SD.
For series [17], the system named is OCI-LY3. Description: CCK-8 anti-proliferation, OCI-LY3. Conditions: read-out: IC50 Cell line OCI-LY3; CCK-8, 72 h; mean ± SD.
Series [18] concerns the target T2, JAK3 (Homo sapiens, UniProt P52333).
T2 construct: purchased Invitrogen (Waltham, MA, USA)
T2 sequence (P52333 1-1124): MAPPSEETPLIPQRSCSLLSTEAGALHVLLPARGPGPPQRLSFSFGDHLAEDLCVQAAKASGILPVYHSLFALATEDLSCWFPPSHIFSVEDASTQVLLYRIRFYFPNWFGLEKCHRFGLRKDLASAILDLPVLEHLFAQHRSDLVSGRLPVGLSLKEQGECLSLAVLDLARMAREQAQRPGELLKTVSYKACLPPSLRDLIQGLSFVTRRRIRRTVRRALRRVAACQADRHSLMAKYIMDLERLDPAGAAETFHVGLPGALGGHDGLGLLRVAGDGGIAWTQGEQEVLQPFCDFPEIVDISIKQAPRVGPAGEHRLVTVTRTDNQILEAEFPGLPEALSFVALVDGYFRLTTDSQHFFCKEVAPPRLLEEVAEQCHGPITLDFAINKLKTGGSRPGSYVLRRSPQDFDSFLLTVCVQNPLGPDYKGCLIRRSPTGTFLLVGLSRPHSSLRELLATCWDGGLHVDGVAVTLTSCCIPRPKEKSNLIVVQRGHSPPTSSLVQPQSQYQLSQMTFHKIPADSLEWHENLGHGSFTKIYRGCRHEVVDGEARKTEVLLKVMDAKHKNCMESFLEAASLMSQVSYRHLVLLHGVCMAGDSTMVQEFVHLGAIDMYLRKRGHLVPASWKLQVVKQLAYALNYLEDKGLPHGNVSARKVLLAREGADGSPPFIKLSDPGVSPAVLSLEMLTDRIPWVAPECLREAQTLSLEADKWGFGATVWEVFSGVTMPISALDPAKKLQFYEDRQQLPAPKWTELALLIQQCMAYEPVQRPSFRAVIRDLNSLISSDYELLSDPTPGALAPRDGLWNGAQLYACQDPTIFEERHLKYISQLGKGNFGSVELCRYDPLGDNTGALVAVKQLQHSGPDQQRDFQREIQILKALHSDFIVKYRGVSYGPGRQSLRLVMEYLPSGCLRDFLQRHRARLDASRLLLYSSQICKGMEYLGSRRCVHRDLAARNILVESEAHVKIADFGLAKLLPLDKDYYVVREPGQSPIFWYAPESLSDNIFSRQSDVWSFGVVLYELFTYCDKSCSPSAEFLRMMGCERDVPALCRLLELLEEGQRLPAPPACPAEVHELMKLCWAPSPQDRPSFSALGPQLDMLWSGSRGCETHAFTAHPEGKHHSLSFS
Description: Z'-Lyte kinase assay, JAK3. It counts as biochemical.

A value given as a limit tells only on which side of the number the result lay.

T1 sequence (P23458 whole entry): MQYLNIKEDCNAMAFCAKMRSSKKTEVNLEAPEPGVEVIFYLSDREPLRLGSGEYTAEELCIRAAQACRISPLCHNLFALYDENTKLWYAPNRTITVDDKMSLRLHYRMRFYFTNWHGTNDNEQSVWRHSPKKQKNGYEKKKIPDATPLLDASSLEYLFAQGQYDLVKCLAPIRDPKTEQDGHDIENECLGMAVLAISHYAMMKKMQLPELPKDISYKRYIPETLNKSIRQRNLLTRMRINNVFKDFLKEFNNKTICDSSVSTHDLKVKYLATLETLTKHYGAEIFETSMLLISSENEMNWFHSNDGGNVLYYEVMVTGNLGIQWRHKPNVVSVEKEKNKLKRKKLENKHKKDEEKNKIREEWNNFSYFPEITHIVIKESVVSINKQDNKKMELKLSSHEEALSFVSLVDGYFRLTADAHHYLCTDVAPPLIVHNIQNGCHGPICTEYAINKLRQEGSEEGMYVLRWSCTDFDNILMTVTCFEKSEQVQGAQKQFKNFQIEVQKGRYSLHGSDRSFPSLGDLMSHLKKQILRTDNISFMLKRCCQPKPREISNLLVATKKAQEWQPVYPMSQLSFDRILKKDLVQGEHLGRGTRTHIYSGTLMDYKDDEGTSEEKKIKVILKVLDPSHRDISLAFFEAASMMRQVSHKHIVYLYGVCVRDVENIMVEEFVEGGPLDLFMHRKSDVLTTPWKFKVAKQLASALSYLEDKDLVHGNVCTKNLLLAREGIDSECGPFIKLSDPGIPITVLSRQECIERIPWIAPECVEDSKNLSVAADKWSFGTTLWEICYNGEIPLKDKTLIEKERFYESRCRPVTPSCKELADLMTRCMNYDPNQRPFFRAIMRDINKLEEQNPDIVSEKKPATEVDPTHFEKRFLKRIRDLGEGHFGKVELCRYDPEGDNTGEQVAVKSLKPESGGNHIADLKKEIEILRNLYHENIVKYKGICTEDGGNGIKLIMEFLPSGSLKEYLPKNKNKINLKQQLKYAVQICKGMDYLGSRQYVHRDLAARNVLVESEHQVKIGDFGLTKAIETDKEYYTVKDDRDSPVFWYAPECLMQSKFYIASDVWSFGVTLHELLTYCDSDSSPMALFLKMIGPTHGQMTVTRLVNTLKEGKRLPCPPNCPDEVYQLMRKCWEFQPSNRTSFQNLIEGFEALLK

The term IC50 denotes the point on the concentration scale where inhibition reaches its midpoint. With `C=CC(=O)N1C[C@H](Nc2ncnc3[nH]ccc23)CC[C@@H]1C` [PF-06651600, ritlecitinib], in [1], the “potency against JAK1 less than against JAK3” value is “approximately 3,000 fold”. In addition, the 50% inhibitory concentration (IC50) in series [2] is above 10 µM; in [3], above 10 µM; in series [4] it was 0.03 ± 0.01 µM; in series [5], above 10 µM; in series [11] it was 0.027 ± 0.004 µM; in [12], above 10 µM. Moreover, the concentration for half-maximal inhibition (IC50) in series [13], in series [14], in series [15], in series [16] and in [17] was above 10 µM each time. Moreover, the “cell cycle arrest” value in [6] (PF-06651600 treatment) is reported as “dose-dependent G0/G1 phase cell cycle arrest”. In addition, the “cell fate or phenotypes” value in series [7] was “did not obviously affect the cell fate or the phenotypes”. Also, in series [8], the “apoptosis” value is recorded as “inducing apoptosis only barely”. In addition, the “activation of JAK3 and the downstream signals” value in [9] is “potently suppressed the activation of JAK3 and the downstream signals in a dose-dependent manner”. The “downstream signaling factors of JAK3” value in [10] is on record as “inhibited the downstream signaling factors of JAK3”. Further, the “phosphorylation of JAK3” value in series [10] is “enhanced the phosphorylation of JAK3”.

`CCS(=O)(=O)N1CC(CC#N)(n2cc(-c3ncnc4[nH]ccc34)cn2)C1` [Baricitinib]: the “JAK3 kinase inhibition” value in series [18] is reported as “weakly suppressed the activity of JAK3”. The “antiproliferative activity against U937 cells” value (shortened to “antiproliferative activity”) in series [11] is “micromolar IC50 values”.

On to `CC[C@@H]1CN(C(=O)NCC(F)(F)F)C[C@@H]1c1cnc2cnc3[nH]ccc3n12` [Upadacitinib], for which the concentration for half-maximal inhibition (IC50) was 0.075 ± 0.008 µM in series [2]; 0.18 ± 0.01 µM in series [3]; 0.098 ± 0.047 µM in series [4]; 0.9 ± 0.12 µM in series [5]; 0.25 ± 0.03 µM in series [11]; above 10 µM in [12]. Further, the half-maximal inhibitory concentration (IC50) in [13], in [14], in series [15], in series [16] and in [17] was above 10 µM throughout.

In the case of `Cc1cnc(Nc2ccc(OCCN3CCCC3)cc2)nc1Nc1cccc(S(=O)(=O)NC(C)(C)C)c1` [Fedratinib], the “JAK3 kinase inhibition” value in [18] is on record as “weakly suppressed the activity of JAK3”. The IC50 in [2] amounted to 1.96 ± 0.24 µM; in series [3] it was 1.83 ± 0.06 µM; in [4], 2.84 ± 0.39 µM; in series [5], 3.47 ± 0.33 µM; in series [11] it was 2.53 ± 0.17 µM; in [12] it was 3.92 ± 0.21 µM. The IC50 in series [13] was 2.44 ± 0.16 µM; in series [14], 2.72 ± 0.54 µM; in series [15] it was 1.42 ± 0.32 µM; in series [16], above 10 µM; in series [17] it was 3.18 ± 0.13 µM. In addition, the “antiproliferative activity” value in [11] is given as “micromolar IC50 values”.

Take `O=C(Nc1nc2cccc(-c3ccc(CN4CCS(=O)(=O)CC4)cc3)n2n1)C1CC1` [Filgotinib]: the “JAK3 kinase inhibition” value in series [18] is on record as “did not obviously suppress JAK3 kinase activity”. Besides, the IC50 in [2] was above 10 µM; in series [3] it was above 10 µM; in [4], 7.19 ± 2.5 µM; in series [5], above 10 µM; in [11], above 10 µM; in [12], above 10 µM. Moreover, the concentration for half-maximal inhibition (IC50) in series [13], in [14], in [15], in [16] and in [17] was above 10 µM each time. Further, the “antiproliferative activity” value in series [11] was “almost totally inactive”.

For `N#CC[C@H](C1CCCC1)n1cc(-c2ncnc3[nH]ccc23)cn1` [Ruxolitinib], the “JAK3 kinase inhibition” value in series [18] is on record as “reasonable inhibition of JAK3”. Besides, the “antiproliferative activity” value in series [11] is “sub-micromole antiproliferative activity”. The concentration for half-maximal inhibition (IC50) in series [11] is 0.7 ± 0.11 µM; in series [12], above 10 µM; in series [13], above 10 µM; in series [14], above 10 µM; in series [15], above 10 µM; in [16], above 10 µM. In addition, the IC50 in series [17] was above 10 µM.

On to “Si-JAK3: Synthetic JAK3 small interfering RNA from RiboBio; si-JAK3: 5′-GCAGACACTTAGCTTGGAA-3′ (chemistry not fully specified)”, for which the “cell cycle arrest” value in [6] (JAK3 siRNA) is listed as “induced G0/G1 phase arrest”. For the same molecule, the “activation of JAK3-STAT3/5 signal pathway” value in [9] (JAK3 siRNA for 72 h) is “suppressed activation of JAK3-STAT3/5 signal pathway”.

`NC(=O)c1cnc2[nH]ccc2c1N[C@@H]1[C@@H]2CC3C[C@H]1C[C@@](O)(C3)C2` [Peficitinib]: the half-maximal inhibitory concentration (IC50) came to 0.6 ± 0.08 µM in series [2]; 1.29 ± 0.09 µM in series [3]; 0.1 ± 0.05 µM in series [4]; 1.56 ± 0.09 µM in series [5]; 0.09 ± 0.02 µM in series [11]; 5.82 ± 0.15 µM in [12]. Further, the IC50 in [13] is 4.93 ± 1.22 µM; in series [14], 2.22 ± 0.08 µM; in series [15], 2.32 ± 0.82 µM; in [16] it was 9.19 ± 0.98 µM; in [17], 3.42 ± 0.01 µM.
